Tests used:
[1] = target: Beta Secretase enzyme (BACE) (Homo sapiens (Human), UniProt P56817); test: In vitro enzymatic BACE FRET assay; format: biochemical; details: read-out: BACE1 Enzyme assay IC50
Cathepsin D (Cat D) = Cathepsin D (Cat D) (Homo sapiens (Human), UniProt P07339); test: In vitro enzymatic Cathepsin D (Cat D) FRET assay; format: biochemical; details: read-out: CatD IC50
BACE = BACE (Homo sapiens (Human), UniProt P56817); test: In vitro BACE cell-based assay (Aβ40 in conditioned medium, sandwich ELISA)
BACE, sequence (P56817 46-501, species assumed): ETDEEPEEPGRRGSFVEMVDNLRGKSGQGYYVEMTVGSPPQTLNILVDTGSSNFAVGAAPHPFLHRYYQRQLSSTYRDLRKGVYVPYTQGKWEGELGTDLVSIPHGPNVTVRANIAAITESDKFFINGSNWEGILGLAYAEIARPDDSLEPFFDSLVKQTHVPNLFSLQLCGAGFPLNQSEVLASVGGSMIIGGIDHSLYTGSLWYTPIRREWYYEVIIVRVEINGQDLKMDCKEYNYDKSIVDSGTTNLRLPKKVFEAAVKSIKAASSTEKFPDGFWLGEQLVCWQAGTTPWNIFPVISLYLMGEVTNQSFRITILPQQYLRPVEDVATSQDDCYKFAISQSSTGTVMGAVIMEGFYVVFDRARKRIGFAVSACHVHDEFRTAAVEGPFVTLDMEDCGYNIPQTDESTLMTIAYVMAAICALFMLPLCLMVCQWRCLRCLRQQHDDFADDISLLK

Beta Secretase enzyme (BACE), sequence (P56817 46-501): as the sequence (P56817 46-501, species assumed) above
Cathepsin D (Cat D), sequence (P07339 65-412, species assumed): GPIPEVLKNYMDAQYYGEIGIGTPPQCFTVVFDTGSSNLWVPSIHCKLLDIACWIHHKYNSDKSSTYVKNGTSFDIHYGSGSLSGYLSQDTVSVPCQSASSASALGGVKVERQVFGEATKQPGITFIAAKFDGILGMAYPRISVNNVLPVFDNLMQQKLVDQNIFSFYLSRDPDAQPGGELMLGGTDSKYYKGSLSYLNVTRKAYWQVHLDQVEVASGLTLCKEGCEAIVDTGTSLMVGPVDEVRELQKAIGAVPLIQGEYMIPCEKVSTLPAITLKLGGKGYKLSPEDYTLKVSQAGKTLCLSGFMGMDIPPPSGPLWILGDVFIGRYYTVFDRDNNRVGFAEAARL

| Compound | IC50 [1] [µM] | IC50 (Cathepsin D (Cat D)) [µM] | IC50 (BACE) [µM] |
| --- | --- | --- | --- |
| N#Cc1cnc(C(=O)Nc2ccc(F)c([C@@]3(C(F)F)N=C(N)O[C@@H]4C[C@@H]43)c2)c(CO)c1 [Example 396, N-(3-((1R,5S,6R)-3-amino-5-(difluoromethyl)-2-oxa-4-azabicyclo[4.1.0]hept-3-en-5-yl)-4-fluorophenyl)-5-cyano-3-(hydroxymethyl)picolinamide] | 0.017 | 198 | 0.151 |
| Cc1cc(NC(=O)c2ncc(C#N)cc2F)cc([C@@]2(C(F)F)N=C(N)O[C@@H]3C[C@@H]32)c1F [Example 398, N-(3-((1R,5S,6R)-3-amino-5-(difluoromethyl)-2-oxa-4-azabicyclo[4.1.0]hept-3-en-5-yl)-4-fluoro-5-methylphenyl)-5-cyano-3-fluoropicolinamide] | 0.0335 | 690 | 0.0123 |
| NC1=N[C@@](c2cc(NC(=O)c3ccc(C#CC4CC4)cn3)ccc2F)(C(F)F)[C@H]2C[C@H]2O1 [Example 405, N-(3-((1R,5S,6R)-3-amino-5-(difluoromethyl)-2-oxa-4-azabicyclo[4.1.0]hept-3-en-5-yl)-4-fluorophenyl)-5-(cyclopropylethynyl)picolinamide] | 0.0237 | 399 | 0.215 |
| NC1=N[C@@](c2cc(NC(=O)c3cnc(C#CC4CC4)cn3)ccc2F)(C(F)F)[C@H]2C[C@H]2O1 [Example 407, N-(3-((1R,5S,6R)-3-amino-5-(difluoromethyl)-2-oxa-4-azabicyclo[4.1.0]hept-3-en-5-yl)-4-fluorophenyl)-5-(cyclopropylethynyl)pyrazine-2-carboxamide] | 0.0296 | 170 | 0.301 |
| NC1=N[C@@](c2cc(Nc3ncc(F)c4cc(C#CC5CC5)cnc34)ccc2F)(C(F)F)[C@H]2C[C@H]2O1 [Example 408, (1R,5S,6R)-5-(5-((3-(cyclopropylethynyl)-5-fluoro-1,7-naphthyridin-8-yl)amino)-2-fluorophenyl)-5-(difluoromethyl)-2-oxa-4-azabicyclo[4.1.0]hept-3-en-3-amine] | 0.0463 | 347 | 1.58 |
| CC1(C#Cc2ccc(C(=O)Nc3ccc(F)c([C@@]4(C(F)F)N=C(N)O[C@@H]5C[C@@H]54)c3)nc2)COC1 [Example 409, N-(3-((1R,5S,6R)-3-amino-5-(difluoromethyl)-2-oxa-4-azabicyclo[4.1.0]hept-3-en-5-yl)-4-fluorophenyl)-5-((3-methyloxetan-3-yl)ethynyl)picolinamide] | 0.327 | 748 | 0.514 |
| NC1=N[C@@](c2cc(NC(=O)c3cnc(OCC#CC4CC4)cn3)ccc2F)(C(F)F)[C@H]2C[C@H]2O1 [Example 411, N-(3-((1R,5S,6R)-3-amino-5-(difluoromethyl)-2-oxa-4-azabicyclo[4.1.0]hept-3-en-5-yl)-4-fluorophenyl)-5-((3-cyclopropylprop-2-yn-1-yl)oxy)pyrazine-2-carboxamide] | 0.0076 | 360 | 0.112 |
| C=CCOc1cnc(C(=O)Nc2ccc(F)c([C@@]3(C(F)F)N=C(N)O[C@@H]4C[C@@H]43)c2)cn1 [Example 414, 5-(allyloxy)-N-(3-((1R,5S,6R)-3-amino-5-(difluoromethyl)-2-oxa-4-azabicyclo[4.1.0]hept-3-en-5-yl)-4-fluorophenyl)pyrazine-2-carboxamide] | 0.048 | 924 | 0.146 |
| CCOc1cnc(C(=O)Nc2ccc(F)c([C@@]3(C(F)F)N=C(N)O[C@@H]4C[C@@H]43)c2)cn1 [Example 417, N-(3-((1R,5S,6R)-3-amino-5-(difluoromethyl)-2-oxa-4-azabicyclo[4.1.0]hept-3-en-5-yl)-4-fluorophenyl)-5-ethoxypyrazine-2-carboxamide] | 0.115 | 1470 | 0.0876 |
| NC1=N[C@@](c2cc(NC(=O)c3cnc(OCC4CCCC4)cn3)ccc2F)(C(F)F)[C@H]2C[C@H]2O1 [Example 418, N-(3-((1R,5S,6R)-3-amino-5-(difluoromethyl)-2-oxa-4-azabicyclo[4.1.0]hept-3-en-5-yl)-4-fluorophenyl)-5-(cyclopentylmethoxy)pyrazine-2-carboxamide] | 0.0261 | 891 | 0.916 |
| NC1=N[C@@](c2cc(NS(=O)(=O)c3ccc(Cl)cn3)ccc2F)(C(F)F)[C@H]2C[C@H]2O1 [Example 421, N-(3-((1R,5S,6R)-3-amino-5-(difluoromethyl)-2-oxa-4-azabicyclo[4.1.0]hept-3-en-5-yl)-4-fluorophenyl)-5-chloropyridine-2-sulfonamide] | 14.2 | 224 | > 15.6 |
| COC[C@H](C)NC(=O)c1ccc(F)c([C@@]2(C(F)F)N=C(N)O[C@@H]3C[C@@H]32)c1 [Example 428, 3-((1R,5S,6R)-3-Amino-5-(difluoromethyl)-2-oxa-4-azabicyclo[4.1.0]hept-3-en-5-yl)-4-fluoro-N—((S)-1-methoxypropan-2-yl)benzamide] | > 40 | 1520 | > 15.6 |
| CC#Cc1cncc(-c2ccc(F)c([C@@]3(C(F)F)N=C(N)O[C@@H]4C[C@@H]43)c2)c1 [Example 429, (1R,5S,6R)-5-(difluoromethyl)-5-(2-fluoro-5-(5-(prop-1-yn-1-yl)pyridin-3-yl)phenyl)-2-oxa-4-azabicyclo[4.1.0]hept-3-en-3-amine] | 1.05 | 72.9 | 3.36 |
| CC#Cc1cncc(-c2ccc(F)c([C@]3(C(F)F)N=C(N)O[C@H]4C[C@H]43)c2)c1 [Example 430] | > 40 | 1020 | > 15.6 |
| CC#Cc1cnn(-c2ccc(F)c([C@@]3(C(F)F)N=C(N)O[C@@H]4C[C@@H]43)c2)c1 [Example 434, (1R,5S,6R)-5-(difluoromethyl)-5-(2-fluoro-5-(4-(prop-1-yn-1-yl)-1H pyrazol-1-yl)phenyl)-2-oxa-4-azabicyclo[4.1.0]hept-3-en-3-amine] | 1.21 | 386 | 0.561 |
| NC1=N[C@@](c2cc(N3Cc4cc(Cl)cnc4C3=O)ccc2F)(C(F)F)[C@H]2C[C@H]2O1 [Example 437, 6-(3-((1R,5S,6R)-3-amino-5-(difluoromethyl)-2-oxa-4-azabicyclo[4.1.0]hept-3-en-5-yl)-4-fluorophenyl)-3-chloro-5H-pyrrolo[3,4-b]pyridin-7(6H)-one] | 2.19 | 659 | 0.384 |

More lines, now with the values ahead:

| IC50 [1] [µM] | IC50 (Cathepsin D (Cat D)) [µM] | IC50 (BACE) [µM] | Compound |
| --- | --- | --- | --- |
| 0.134 | 1070 | 0.289 | CC(C)c1cc(C#N)cnc1C(=O)Nc1ccc(F)c([C@@]2(C(F)F)N=C(N)O[C@@H]3C[C@@H]32)c1 [Example 394, N-(3-((1R,5S,6R)-3-amino-5-(difluoromethyl)-2-oxa-4-azabicyclo[4.1.0]hept-3-en-5-yl)-4-fluorophenyl)-5-cyano-3-isopropylpicolinamide] |
| 0.0144 | 477 | 0.0737 | N#Cc1cnc(C(=O)Nc2ccc(F)c([C@@]3(C(F)F)N=C(N)O[C@@H]4C[C@@H]43)c2)c(C(F)F)c1 [Example 395, N-(3-((1R,5S,6R)-3-amino-5-(difluoromethyl)-2-oxa-4-azabicyclo[4.1.0]hept-3-en-5-yl)-4-fluorophenyl)-5-cyano-3-(difluoromethyl)picolinamide] |
| 0.081 | > 400 | 0.009 | COc1cc(C#N)cnc1C(=O)Nc1ccc(Cl)c([C@@]2(CF)N=C(N)O[C@@H]3C[C@@H]32)c1 [Example 397, N-(3-((1R,5S,6R)-3-amino-5-(fluoromethyl)-2-oxa-4-azabicyclo[4.1.0]hept-3-en-5-yl)-4-chlorophenyl)-5-cyano-3-methoxypicolinamide] |
| 0.0706 | 1090 | 0.0208 | COc1cc(C#N)cnc1C(=O)Nc1cc(C)c(F)c([C@@]2(C(F)F)N=C(N)O[C@@H]3C[C@@H]32)c1 [Example 399, N-(3-((1R,5S,6R)-3-amino-5-(difluoromethyl)-2-oxa-4-azabicyclo[4.1.0]hept-3-en-5-yl)-4-fluoro-5-methylphenyl)-5-cyano-3-methoxypicolinamide] |
| 0.0759 | 8910 | 0.861 | NC1=N[C@@](c2cc(Nc3nccc4cc(C#CC5CC5)cnc34)ccc2F)(C(F)F)[C@H]2C[C@H]2O1 [Example 406, (1R,5S,6R)-5-(5-((3-(cyclopropylethynyl)-1,7-naphthyridin-8-yl)amino)-2-fluorophenyl)-5-(difluoromethyl)-2-oxa-4-azabicyclo[4.1.0]hept-3-en-3-amine] |
| 0.129 | 640 | 0.984 | NC1=N[C@@](c2cc(NC(=O)c3cnc(OCC4CCOCC4)cn3)ccc2F)(C(F)F)[C@H]2C[C@H]2O1 [Example 412, N-(3-((1R,5S,6R)-3-amino-5-(difluoromethyl)-2-oxa-4-azabicyclo[4.1.0]hept-3-en-5-yl)-4-fluorophenyl)-5-((tetrahydro-2H-pyran-4-yl)methoxy)pyrazine-2-carboxamide] |
| 0.0121 | 228 | 2.5 | NC1=N[C@@](c2cc(NC(=O)c3cnc(OCC4CCCCC4)cn3)ccc2F)(C(F)F)[C@H]2C[C@H]2O1 [Example 416, N-(3-((1R,5S,6R)-3-amino-5-(difluoromethyl)-2-oxa-4-azabicyclo[4.1.0]hept-3-en-5-yl)-4-fluorophenyl)-5-(cyclohexylmethoxy)pyrazine-2-carboxamide] |
| > 40 | > 400 | > 15.6 | COC[C@H](C)NC(=O)c1ccc(F)c([C@]2(C(F)F)N=C(N)O[C@H]3C[C@H]32)c1 [Example 427, 3-((1S,5R,6S)-3-Amino-5-(difluoromethyl)-2-oxa-4-azabicyclo[4.1.0]hept-3-en-5-yl)-4-fluoro-N—((S)-1-methoxypropan-2-yl)benzamide] |
